Source: ChEMBL document CHEMBL5291721, “A preclinical secondary pharmacology resource illuminates target-adverse drug reaction associations of marketed drugs” (Nat Commun, 2023)

Key:
[1] = molecular target: T1, Cholecystokinin receptor type A (Homo sapiens, UniProt P32238)
T1 sequence (P32238 whole entry): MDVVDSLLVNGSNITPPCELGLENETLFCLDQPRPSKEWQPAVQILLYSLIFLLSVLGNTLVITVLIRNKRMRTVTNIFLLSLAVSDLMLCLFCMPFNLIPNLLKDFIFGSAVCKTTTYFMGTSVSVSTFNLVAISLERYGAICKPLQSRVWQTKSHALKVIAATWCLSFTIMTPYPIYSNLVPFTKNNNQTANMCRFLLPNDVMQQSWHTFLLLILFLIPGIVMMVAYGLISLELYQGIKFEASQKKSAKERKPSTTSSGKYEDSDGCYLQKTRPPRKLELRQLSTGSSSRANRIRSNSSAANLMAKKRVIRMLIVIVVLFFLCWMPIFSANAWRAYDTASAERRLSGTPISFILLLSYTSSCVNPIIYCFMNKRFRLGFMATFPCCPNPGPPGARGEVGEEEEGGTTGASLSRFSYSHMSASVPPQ

[2] = molecular target: T2, 5-hydroxytryptamine receptor 1A (Homo sapiens, UniProt P08908); assay type: functional, cell-based
T2 sequence (P08908 whole entry): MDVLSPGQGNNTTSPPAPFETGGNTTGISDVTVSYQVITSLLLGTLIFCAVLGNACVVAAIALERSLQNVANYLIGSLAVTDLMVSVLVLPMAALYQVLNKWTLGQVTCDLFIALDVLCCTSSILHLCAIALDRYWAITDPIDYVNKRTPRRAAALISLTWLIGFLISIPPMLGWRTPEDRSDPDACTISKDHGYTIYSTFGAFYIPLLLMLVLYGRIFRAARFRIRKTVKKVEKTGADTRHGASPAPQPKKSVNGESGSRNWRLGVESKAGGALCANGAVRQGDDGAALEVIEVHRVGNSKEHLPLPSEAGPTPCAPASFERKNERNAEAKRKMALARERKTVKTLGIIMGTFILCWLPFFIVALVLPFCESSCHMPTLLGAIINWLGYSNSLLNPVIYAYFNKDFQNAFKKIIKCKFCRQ

[3] = molecular target: Neuronal acetylcholine receptor subunit alpha-4 (Homo sapiens, UniProt P43681)
Neuronal acetylcholine receptor subunit alpha-4, sequence (P43681 whole entry): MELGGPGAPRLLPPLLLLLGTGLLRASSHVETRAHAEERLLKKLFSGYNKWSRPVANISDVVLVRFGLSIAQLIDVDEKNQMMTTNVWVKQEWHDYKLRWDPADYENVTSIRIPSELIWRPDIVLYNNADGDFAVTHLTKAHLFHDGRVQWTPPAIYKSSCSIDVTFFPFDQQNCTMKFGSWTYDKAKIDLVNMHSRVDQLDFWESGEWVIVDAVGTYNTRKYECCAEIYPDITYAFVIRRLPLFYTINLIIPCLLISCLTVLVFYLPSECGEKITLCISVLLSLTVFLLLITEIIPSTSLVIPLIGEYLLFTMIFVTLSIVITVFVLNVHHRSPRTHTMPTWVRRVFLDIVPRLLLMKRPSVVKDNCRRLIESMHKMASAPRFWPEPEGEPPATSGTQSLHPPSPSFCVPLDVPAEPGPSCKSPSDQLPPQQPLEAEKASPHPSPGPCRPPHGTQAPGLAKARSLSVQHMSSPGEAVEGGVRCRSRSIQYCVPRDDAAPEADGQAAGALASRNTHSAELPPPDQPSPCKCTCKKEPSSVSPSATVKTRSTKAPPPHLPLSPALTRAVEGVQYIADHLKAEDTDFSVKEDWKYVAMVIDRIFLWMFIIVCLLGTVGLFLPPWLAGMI

[4] = molecular target: Kappa-type opioid receptor (Homo sapiens, UniProt P41145)
Kappa-type opioid receptor, sequence (P41145 whole entry): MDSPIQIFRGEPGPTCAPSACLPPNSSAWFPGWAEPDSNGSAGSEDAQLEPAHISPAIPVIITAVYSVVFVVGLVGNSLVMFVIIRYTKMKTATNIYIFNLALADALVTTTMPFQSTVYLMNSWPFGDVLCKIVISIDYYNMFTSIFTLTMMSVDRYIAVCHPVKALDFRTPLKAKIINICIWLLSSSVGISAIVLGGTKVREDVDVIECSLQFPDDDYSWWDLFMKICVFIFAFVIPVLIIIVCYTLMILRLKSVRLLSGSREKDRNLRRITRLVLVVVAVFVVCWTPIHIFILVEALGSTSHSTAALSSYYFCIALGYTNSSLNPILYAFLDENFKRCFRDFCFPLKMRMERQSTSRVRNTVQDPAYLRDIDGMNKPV

[5] = molecular target: 3',5'-cyclic-AMP phosphodiesterase 4D (Homo sapiens, UniProt Q08499); assay type: functional
3',5'-cyclic-AMP phosphodiesterase 4D, sequence (Q08499 whole entry): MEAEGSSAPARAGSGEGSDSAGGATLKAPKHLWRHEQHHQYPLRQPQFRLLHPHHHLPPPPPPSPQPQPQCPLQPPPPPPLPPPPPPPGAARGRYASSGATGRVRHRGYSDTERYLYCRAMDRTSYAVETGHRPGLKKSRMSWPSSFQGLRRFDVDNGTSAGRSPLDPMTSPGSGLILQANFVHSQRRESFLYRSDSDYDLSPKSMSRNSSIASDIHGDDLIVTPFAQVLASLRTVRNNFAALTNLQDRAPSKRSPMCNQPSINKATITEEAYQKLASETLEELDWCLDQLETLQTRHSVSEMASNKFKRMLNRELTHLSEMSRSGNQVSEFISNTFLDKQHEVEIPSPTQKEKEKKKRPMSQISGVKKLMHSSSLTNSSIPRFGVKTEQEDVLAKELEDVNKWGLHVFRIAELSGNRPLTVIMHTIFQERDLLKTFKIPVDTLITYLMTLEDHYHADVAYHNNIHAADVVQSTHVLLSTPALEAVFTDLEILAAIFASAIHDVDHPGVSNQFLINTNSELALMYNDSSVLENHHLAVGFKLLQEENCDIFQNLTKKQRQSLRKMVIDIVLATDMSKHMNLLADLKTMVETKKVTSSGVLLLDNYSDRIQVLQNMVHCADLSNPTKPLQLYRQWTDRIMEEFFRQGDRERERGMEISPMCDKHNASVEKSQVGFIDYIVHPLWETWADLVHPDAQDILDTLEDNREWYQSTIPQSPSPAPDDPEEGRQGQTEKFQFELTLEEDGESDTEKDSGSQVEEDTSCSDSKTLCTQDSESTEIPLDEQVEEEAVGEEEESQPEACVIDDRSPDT

[6] = molecular target: Gamma-aminobutyric acid receptor subunit alpha-1 (Rattus norvegicus, UniProt P62813); assay type: functional
Gamma-aminobutyric acid receptor subunit alpha-1, sequence (P62813 whole entry): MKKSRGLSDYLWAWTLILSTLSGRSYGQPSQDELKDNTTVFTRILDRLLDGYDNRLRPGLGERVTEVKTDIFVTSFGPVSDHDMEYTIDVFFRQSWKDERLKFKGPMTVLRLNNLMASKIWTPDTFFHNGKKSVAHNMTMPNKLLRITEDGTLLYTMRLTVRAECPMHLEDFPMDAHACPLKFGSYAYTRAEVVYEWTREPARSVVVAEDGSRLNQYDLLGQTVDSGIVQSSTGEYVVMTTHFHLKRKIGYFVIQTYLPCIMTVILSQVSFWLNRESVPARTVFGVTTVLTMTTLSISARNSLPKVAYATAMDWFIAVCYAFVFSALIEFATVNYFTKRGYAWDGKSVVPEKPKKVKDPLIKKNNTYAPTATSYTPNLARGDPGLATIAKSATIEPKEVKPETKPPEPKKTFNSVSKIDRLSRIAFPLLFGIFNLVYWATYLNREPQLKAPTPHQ

[7] = molecular target: T2, 5-hydroxytryptamine receptor 1A; assay type: functional, cell-based; remark: listed apart in the source
[8] = molecular target: D(3) dopamine receptor (Homo sapiens, UniProt P35462)
D(3) dopamine receptor, sequence (P35462 whole entry): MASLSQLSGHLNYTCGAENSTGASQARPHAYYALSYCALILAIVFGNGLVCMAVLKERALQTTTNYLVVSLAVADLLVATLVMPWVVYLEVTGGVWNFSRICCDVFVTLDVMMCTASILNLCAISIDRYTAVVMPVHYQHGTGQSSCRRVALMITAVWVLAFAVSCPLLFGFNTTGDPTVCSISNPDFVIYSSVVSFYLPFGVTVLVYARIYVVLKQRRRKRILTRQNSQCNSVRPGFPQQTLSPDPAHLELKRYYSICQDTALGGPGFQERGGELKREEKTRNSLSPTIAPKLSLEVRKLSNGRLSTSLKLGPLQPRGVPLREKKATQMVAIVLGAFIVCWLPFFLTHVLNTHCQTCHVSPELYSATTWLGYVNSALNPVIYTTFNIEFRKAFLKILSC

[9] = molecular target: Vasopressin V1a receptor (Homo sapiens, UniProt P37288)
Vasopressin V1a receptor, sequence (P37288 whole entry): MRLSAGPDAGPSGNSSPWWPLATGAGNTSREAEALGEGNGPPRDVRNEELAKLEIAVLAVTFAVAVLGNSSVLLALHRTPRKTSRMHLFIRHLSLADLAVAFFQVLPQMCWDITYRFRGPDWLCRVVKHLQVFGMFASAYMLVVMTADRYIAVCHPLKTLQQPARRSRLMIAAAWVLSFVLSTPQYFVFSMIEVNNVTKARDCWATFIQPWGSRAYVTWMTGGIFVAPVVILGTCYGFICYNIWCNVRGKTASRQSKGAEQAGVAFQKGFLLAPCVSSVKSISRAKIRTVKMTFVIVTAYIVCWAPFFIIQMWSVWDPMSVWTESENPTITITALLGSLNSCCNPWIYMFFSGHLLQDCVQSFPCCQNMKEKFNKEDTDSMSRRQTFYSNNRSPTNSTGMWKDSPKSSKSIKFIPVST

[10] = molecular target: T3, Alpha-1A adrenergic receptor (Homo sapiens, UniProt P35348)
T3 sequence (P35348 whole entry): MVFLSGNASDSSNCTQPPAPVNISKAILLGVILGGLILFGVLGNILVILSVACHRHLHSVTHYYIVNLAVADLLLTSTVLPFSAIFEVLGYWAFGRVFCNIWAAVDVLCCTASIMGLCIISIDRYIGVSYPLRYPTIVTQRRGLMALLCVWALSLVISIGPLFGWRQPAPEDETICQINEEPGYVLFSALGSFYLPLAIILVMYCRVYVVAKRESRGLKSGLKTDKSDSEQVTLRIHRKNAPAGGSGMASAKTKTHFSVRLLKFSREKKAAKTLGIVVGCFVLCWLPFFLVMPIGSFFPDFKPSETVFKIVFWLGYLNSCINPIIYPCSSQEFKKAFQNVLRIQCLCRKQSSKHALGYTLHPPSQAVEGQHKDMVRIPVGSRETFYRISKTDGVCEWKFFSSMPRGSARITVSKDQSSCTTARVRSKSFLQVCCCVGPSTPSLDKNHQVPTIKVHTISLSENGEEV

[11] = molecular target: T3, Alpha-1A adrenergic receptor; assay type: functional, cell-based
Also: assay procedure not described here.

Structure (SMILES) | AC50 [1] | AC50 [2] | AC50 [3] | AC50 [4] | AC50 [5] | AC50 [6] | AC50 [7] | AC50 [8] | AC50 [9] | AC50 [10] | AC50 [11]
COC(=O)[C@H]1[C@H]2C[C@@H]3c4[nH]c5cc(OC)ccc5c4CCN3C[C@H]2C[C@@H](OC(=O)c2cc(OC)c(OC)c(OC)c2)[C@@H]1OC [RESERPINE] | > 10 µM | > 10 µM | > 10 µM | 11.7 µM | > 30 µM | > 10 µM | > 10 µM | > 30 µM | > 10 µM | – | –
O=C(O)c1cccnc1Nc1cccc(C(F)(F)F)c1 [NIFLUMIC ACID] | > 10 µM | > 10 µM | > 10 µM | > 10 µM | > 30 µM | > 10 µM | > 10 µM | > 30 µM | – | > 10 µM | –
OC[C@H]1O[C@@H](n2cnc3c2NC=NC[C@H]3O)C[C@@H]1O [PENTOSTATIN] | > 30 µM | > 30 µM | > 30 µM | > 30 µM | > 30 µM | > 30 µM | > 30 µM | > 30 µM | > 30 µM | – | –
CCCN1CC(NS(=O)(=O)N(CC)CC)CC2Cc3c(O)cccc3CC21 (stereo not given) [QUINAGOLIDE] | > 30 µM | 1.1 µM | > 30 µM | 1.7 µM | > 30 µM | > 30 µM | – | 0.0028 µM | > 30 µM | 29 µM | –
NC[C@H]1CC[C@H](C(=O)Oc2ccc(CCC(=O)O)cc2)CC1 [CETRAXATE] | – | > 30 µM | – | > 30 µM | > 30 µM | > 30 µM | > 30 µM | > 30 µM | – | – | > 30 µM
COC(=O)C1=C(C)NC(C)=C(C(=O)OCCN2CCN(C(c3ccccc3)c3ccccc3)CC2)C1c1cccc([N+](=O)[O-])c1 (stereo not given) [MANIDIPINE 6300] | > 30 µM | > 30 µM | > 30 µM | 7.9 µM | > 30 µM | > 30 µM | > 30 µM | 6.3 µM | > 30 µM | – | > 30 µM
CN(C)C/C=C/C(=O)Nc1cc2c(Nc3ccc(F)c(Cl)c3)ncnc2cc1O[C@H]1CCOC1 [AFATINIB] | 11 µM | > 30 µM | > 30 µM | > 30 µM | > 30 µM | > 30 µM | > 30 µM | > 30 µM | > 30 µM | – | > 30 µM
CCOC(=O)c1c(CSc2ccccc2)n(C)c2cc(Br)c(O)c(CN(C)C)c12 [UMIFENOVIR] | > 30 µM | > 30 µM | > 30 µM | > 30 µM | 5.6 µM | > 30 µM | – | 6.8 µM | > 30 µM | – | –
C[C@]12CCC(=O)C[C@@H]1CC[C@@H]1[C@@H]2CC[C@]2(C)[C@@H](O)CC[C@@H]12 [STANOLONE] | > 30 µM | > 30 µM | > 30 µM | > 30 µM | > 30 µM | > 30 µM | – | > 30 µM | – | > 30 µM | > 30 µM
CC(Cc1cccc(C(F)(F)F)c1)NCCOC(=O)c1ccccc1 (stereo not given) [BENFLUOREX] | > 30 µM | 4.3 µM | > 30 µM | > 30 µM | – | – | – | 2.63 µM | > 30 µM | – | 14 µM
O=C1c2cccc3c2[C@H](CCC3)CN1[C@@H]1CN2CCC1CC2 [PALONOSETRON] | > 30 µM | > 30 µM | 38.5 µM | > 30 µM | > 30 µM | > 30 µM | – | 29 µM | > 30 µM | – | 29 µM
Cc1ccccc1N1C(=O)c2cc(S(N)(=O)=O)c(Cl)cc2NC1C (stereo not given) [METOLAZONE] | > 10 µM | > 10 µM | > 10 µM | > 10 µM | > 30 µM | > 10 µM | > 10 µM | > 30 µM | – | > 10 µM | –
